Holding throughout (format): cell-based
Experiment [1] deals with Desulfovibrio desulfuricans. In words: Sulfate Reducing Bacteria In Vitro Test. The settings on record: Sulfate API broth with tryptone, anaerobic, room temperature, 3 to 5 days, unit from method text, read-out: minimum inhibitory concentration necessary to control the organism. The procedure:
This test measures the bactericidal properties of a compound when in contact with a sulfate reducing bacteria, specifically Desulfovibrio desulfuricans. The test is conducted by dissolving the test compound in acetone to give an 0.5 percent solution. This toxicant is added to vials containing sterile Sulfate API broth with tryptone under anaerobic conditions at such levels to give final toxicant concentrations of 1, 5, 10 and 50 μg/ml. of solution. An inoculant solution of 0.5 ml of the growing organism, Desulfovibrio desulfuricans, is added to the vials followed by sufficient sterile distilled water to give a total of 10 ml. of solution in the vials. […] The following is a summary of the minimum inhibitory concentration necessary to control the organism.

The next experiment concerns stapylococcus aureus. Kind of experiment: In Vitro Vial Test (bactericidal, nutrient broth). The settings on record: 168 h, sealed vial incubated one week, read-out: Concentration (PPM) Which Inhibited Growth. As for the experimental part:
The following test illustrates utility of the compounds in controlling bacteria. This test measures the bactericidal properties of a compound when in contact with a growing bacterium. The test is conducted by partially filling a 1-ounce vial with nutrient broth. Next the test compound is added to the vial at a certain concentration, expressed in parts per million, and mixed with the broth. A water suspension of cells of stapylococcus aureus is added. The vial is then sealed and incubated for one week.

Another experiment concerns Aspergillus oryzae. Kind of experiment: In Vitro Agar Screening Test, fungi. Conditions: potato dextrose agar, 30° C., read-out: Minimum Inhibitory Concentration. The procedure: (§1) This test measures the bactericidal, fungicidal and algaecidal properties of a compound when in contact with growing bacteria, fungi or algae in an artifical medium. The test is conducted by adding 20 ml. portions of a suitable warm sterile agar solution into 20 × 100 mm. Petri dishes. Then, the test compound, in 0.5 percent acetone solution, is added to the Petri dishes at levels of 1, 10 and 50 μg/ml. and mixed with the warm mobile agar solution. The treated agar mixture is then allowed to come to room temperature and solidify. Cells of the chosen organism are streaked on the surface of the solidified agar and are then incubated for such lengths of time that untreated samples containing no toxicant show luxurious growth typical of the particular organism. This time varies from 24 hours to one week depending on the particular organism. The fungi are incubated at 30° C. and the bacteria are incubated at 37° C. The algae are incubated at room temperature under artificial light. Nutrient agar is used as the medium in this test for the bacteria. Potato dextrose agar is used as the medium for the fungi with the exception of Trichophyton mentagrophytes for which Emmons agar is used. A modified Jack Meyers agar is used for the growth of the algae.
(§2) The extent of growth is noted at the end of the incubation period.
(§3) Representative organisms used in this test are as follows: […]

A further experiment deals with Staphylococcus aureus. Kind of experiment: In Vitro Agar Screening Test, bacteria. The settings on record: Stapylococcus aureus, nutrient agar, 37° C., read-out: Minimum Inhibitory Concentration. The procedure: as §1, §2, §3
A further experiment deals with Bacillus cereus. Kind of experiment: In Vitro Agar Screening Test, bacteria. Conditions: nutrient agar, 37° C., indicates partial control at this concentration, read-out: Minimum Inhibitory Concentration. The procedure:
as §1, §2, §3

In experiment [2] the test system is Brevibacterium ammoniagenes. Kind of experiment: In Vitro Agar Screening Test, bacteria. The settings on record: Corynebacterium ammoniagenes, nutrient agar, 37° C., read-out: Minimum Inhibitory Concentration. The procedure: as §1, §2, §3
The subject of another experiment is Enterobacter aerogenes. In words: In Vitro Agar Screening Test, bacteria. The settings on record: Klebsiella aerogenes, nutrient agar, 37° C., indicates partial control at this concentration, read-out: Minimum Inhibitory Concentration. As for the experimental part:
as §1, §2, §3

Another experiment has as its system Scenedesmus obliquus. In words: In Vitro Agar Screening Test, algae. Conditions: Tetradesmus obliquus, modified Jack Meyers agar, room temperature, artificial light, indicates partial control at this concentration, read-out: Minimum Inhibitory Concentration. As for the experimental part:
as §1, §2, §3

The test system of experiment [3] is Trichophyton mentagrophytes. In words: In Vitro Agar Screening Test, fungi. Conditions: Emmons agar, 30° C., indicates partial control at this concentration, read-out: Minimum Inhibitory Concentration. As for the experimental part:
as §1, §2, §3

Among the data in USRE29675E, “O-(Halophenylcarbamyl)-N-(halophenyl) glycolamides” (Stauffer Chemical Company, priority 1977, dated 1978) are MIC values, retold here.

The structures appear in SMILES notation. Converted amounts (≈) assume the structure as drawn. Bounds are passed on as bounds.

As to `O=C(COC(=O)Nc1cccc(Cl)c1)Nc1ccc(Cl)c(Cl)c1` [Compound 2, O-(3-Chlorophenylcarbamyl)-N-(3,4-dichlorophenyl)-glycolamide], the MIC in experiment [1] was 10 µg/mL (≈ 26.8 µM); with stapylococcus aureus it was 0.25 µg/mL (≈ 0.669 µM); with Aspergillus oryzae, greater than 50 µg/mL; in the experiment on Staphylococcus aureus it was 1 µg/mL (≈ 2.68 µM); in the experiment with Bacillus cereus it was 1 µg/mL (≈ 2.68 µM); in [2] it was 5 µg/mL (≈ 13.4 µM).
Take `O=C(COC(=O)Nc1ccc(Cl)c(Cl)c1)Nc1ccc(Cl)cc1` [Compound 4]: in the experiment with stapylococcus aureus, the MIC amounted to 1 µg/mL (≈ 2.68 µM).
On the same count and under the same terms, with `O=C(COC(=O)Nc1ccc(Cl)c(Cl)c1)Nc1ccc(Cl)c(Cl)c1` [Compound 5] the figure was 1 µg/mL (≈ 2.45 µM).
The same measure, in the same setting: under `O=C(COC(=O)Nc1cccc(Cl)c1)Nc1ccc(Cl)cc1` [Compound 3] stands 5 µg/mL (≈ 14.7 µM).
Turning to `O=C(COC(=O)Nc1ccc(Cl)cc1)Nc1ccc(Cl)c(Cl)c1` [Compound 1], the MIC in experiment [1] is 50 µg/mL (≈ 134 µM); in the experiment with stapylococcus aureus, 0.25 µg/mL (≈ 0.669 µM); in the experiment on Aspergillus oryzae, 5 µg/mL (≈ 13.4 µM); with Enterobacter aerogenes, 1 µg/mL (≈ 2.68 µM); with Staphylococcus aureus, 1 µg/mL (≈ 2.68 µM); in the experiment with Scenedesmus obliquus it was 1 µg/mL (≈ 2.68 µM). For the same compound, the MIC in experiment [2] and in experiment [3] was 5 µg/mL (≈ 13.4 µM) throughout.
`O=C(COC(=O)Nc1cccc(Br)c1)Nc1ccc(Cl)c(Cl)c1` [Compound 6]: in the experiment with stapylococcus aureus, the MIC is 0.5 µg/mL (≈ 1.2 µM).
